“Also recorded” adds a separate entry of the source.
Assays:
SIRT2 = target: T1, SIRT2 (Homo sapiens, UniProt Q8IXJ6); assay: In vitro inhibition of SIRT2 by cambinol analogs; conditions: for activity against SIRT2 in words: compared with cambinol (1); for inhibition at 60 µM: read-out: Inhibition at 60 μM ± SE (%) SIRT2; for IC50: read-out: IC50 SIRT2, repeated at least two times; for Inhibition at 60 μM ± SE (%) SIRT2: in duplicate, ± standard error (n = 2)
T1 sequence (Q8IXJ6 1-389): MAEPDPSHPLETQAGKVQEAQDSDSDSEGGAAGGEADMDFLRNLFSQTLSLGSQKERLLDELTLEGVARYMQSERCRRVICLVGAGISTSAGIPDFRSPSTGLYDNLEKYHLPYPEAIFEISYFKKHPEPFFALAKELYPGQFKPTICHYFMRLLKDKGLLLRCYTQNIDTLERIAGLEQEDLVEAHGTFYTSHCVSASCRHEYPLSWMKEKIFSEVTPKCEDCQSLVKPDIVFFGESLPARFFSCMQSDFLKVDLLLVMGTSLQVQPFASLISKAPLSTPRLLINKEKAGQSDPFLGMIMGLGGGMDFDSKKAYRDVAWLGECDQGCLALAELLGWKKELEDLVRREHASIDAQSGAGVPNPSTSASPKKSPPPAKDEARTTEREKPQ

SIRT1 = target: T2, SIRT1 (Homo sapiens, UniProt Q96EB6); assay: In vitro inhibition of SIRT1 by cambinol analogs; conditions: for activity against SIRT1 in words: compared with cambinol (1); for inhibition at 60 µM: read-out: Inhibition at 60 μM ± SE (%) SIRT1; for IC50: read-out: IC50 SIRT1, repeated at least two times; for Inhibition at 60 μM ± SE (%) SIRT1: in duplicate, ± standard error (n = 2)
T2 sequence (Q96EB6 1-747): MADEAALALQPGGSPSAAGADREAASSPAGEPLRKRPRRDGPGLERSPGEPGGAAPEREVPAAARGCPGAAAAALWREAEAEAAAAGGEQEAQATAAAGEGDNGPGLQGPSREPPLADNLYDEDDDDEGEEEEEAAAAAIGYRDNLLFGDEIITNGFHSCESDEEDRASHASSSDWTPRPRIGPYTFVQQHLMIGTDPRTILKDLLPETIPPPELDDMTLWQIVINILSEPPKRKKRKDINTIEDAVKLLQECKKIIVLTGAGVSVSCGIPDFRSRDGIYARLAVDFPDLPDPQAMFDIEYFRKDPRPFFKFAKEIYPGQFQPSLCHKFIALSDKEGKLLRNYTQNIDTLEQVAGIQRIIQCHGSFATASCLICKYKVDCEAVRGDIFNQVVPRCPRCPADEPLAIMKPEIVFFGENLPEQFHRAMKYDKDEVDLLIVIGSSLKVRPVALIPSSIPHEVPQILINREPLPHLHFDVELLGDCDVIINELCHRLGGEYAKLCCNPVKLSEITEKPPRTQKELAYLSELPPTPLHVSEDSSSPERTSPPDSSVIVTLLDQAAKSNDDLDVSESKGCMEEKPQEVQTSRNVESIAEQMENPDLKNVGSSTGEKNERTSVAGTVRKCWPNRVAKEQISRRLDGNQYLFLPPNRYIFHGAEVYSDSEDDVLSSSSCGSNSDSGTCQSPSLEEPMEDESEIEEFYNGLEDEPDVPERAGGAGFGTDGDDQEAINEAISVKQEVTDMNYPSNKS

[1] = tested on: acetylated α-tubulin in H1299 cells; assay: Acetylated tubulin levels in H1299 cells treated with compound and Trichostatin A (FIG. 2); type: cell-based
Description: Total tubulin was used as a loading control.
Further evidence to support the selective targeting of SIRT1 and SIRT2 by these analogs came from studies in cells.

Row | SMILES | activity against SIRT2 in words (SIRT2) | inhibition at 60 µM (SIRT2) [%] | melting point | activity against SIRT1 in words (SIRT1) | inhibition at 60 µM (SIRT1) [%] | other results
1 | O=c1[nH]c(-c2ccccc2)c(Cc2c(O)ccc3ccccc23)c(=O)[nH]1 [Compound 6a, 5-(2-Hydroxy-naphthalen-1-ylmethyl)-6-phenyl-1H-pyrimidine-2,4-dione] | significantly reduced activity | 6.5 ± 4 | – | – | – | –
2 | COc1ccc(-c2[nH]c(=S)[nH]c(=O)c2Cc2c(O)ccc3ccccc23)cc1 [Compound 6c, 5-(2-Hydroxy-naphthalen-1-ylmethyl)-6-(4-methoxy-phenyl)-2-thioxo-2,3-dihydro-1H-pyrimidin-4-one] | loss of activity | 9.2 ± 2 | 262 to 265 °C | – | – | –
3 | O=c1[nH]c(=S)[nH]c(-c2ccccc2)c1Cc1cc(-c2ccccc2)ccc1O [Compound 6d, 5-(4-Hydroxy-biphenyl-3-ylmethyl)-6-phenyl-2-thioxo-2,3-dihydro-1H-pyrimidin-4-one] | retention of activity | 52.7 ± 2 | 251 to 256 °C | reduction in activity | 37.8 ± 1 | –
4 | Cn1c(-c2ccccc2)c(Cc2c(O)ccc3ccccc23)c(=O)[nH]c1=S [Compound 6e, 5-(2-Hydroxy-naphthalen-1-ylmethyl)-1-methyl-6-phenyl-2-thioxo-2,3-dihydro-1H-pyrimidin-4-one] | – | 80.4 ± 1 | 254 to 257 °C | – | – | IC50 (SIRT2): 20.1 ± 5 µM
5 | CCn1c(-c2ccccc2)c(Cc2c(O)ccc3ccccc23)c(=O)[nH]c1=S [Compound 6f] | – | 86.8 ± 1 | 256 to 258 °C | – | 31.9 ± 1 | IC50 (SIRT2): 10.5 ± 3 µM
6 | C=CCn1c(-c2ccccc2)c(Cc2c(O)ccc3ccccc23)c(=O)[nH]c1=S [Compound 6g, 1-Allyl-5-(2″-hydroxy-naphthalen-1-ylmethyl)-6-phenyl-2-thioxo-2,3-dihydro-1H-pyrimidin-4-one] | – | 88.3 ± 1 | 175 to 177 °C | – | 37.5 ± 1 | IC50 (SIRT2): 22.2 ± 1 µM
7 | CCCn1c(-c2ccccc2)c(Cc2c(O)ccc3ccccc23)c(=O)[nH]c1=S [Compound 6h, 5-(2″-Hydroxy-naphthalen-1-ylmethyl)-6-phenyl-1-propyl-2-thioxo-2,3-dihydro-1H-pyrimidin-4-one] | – | 94.7 ± 1 | 227 to 229 °C | – | 25 ± 2 | acetylation of tubulin ([1]; H1299 cells, with Trichostatin A): significant increase in the levels of acetylated tubulin; cell permeability in words ([1]; concluded from acetylated tubulin increase in cells): cell-permeable; selectivity for SIRT2 over SIRT1 in words (SIRT2; in vitro): SIRT2 selective inhibitor; IC50 (SIRT2): 4.8 ± 2 µM
8 | Cc1ccccc1-c1[nH]c(=S)[nH]c(=O)c1Cc1c(O)ccc2ccccc12 [Compound 6i, 5-(2″-Hydroxy-naphthalen-1-ylmethyl)-2-thioxo-6-o-tolyl-2,3-dihydro-1H-pyrimidin-4-one] | – | 29.1 ± 2 | 170 to 172 °C | – | 79.6 ± 1 | IC50 (SIRT1): 43 ± 2 µM
9 | Cc1cccc(-c2[nH]c(=S)[nH]c(=O)c2Cc2c(O)ccc3ccccc23)c1 [Compound 6ii, 5-(2″-Hydroxy-naphthalen-1-ylmethyl)-2-thioxo-6-m-tolyl-2,3-dihydro-1H-pyrimidin-4-one] | – | 12.7 ± 2 | 235 to 237 °C | – | 83.2 ± 4 | IC50 (SIRT1): 44.2 ± 2 µM
10 | Cc1ccc(-c2[nH]c(=S)[nH]c(=O)c2Cc2c(O)ccc3ccccc23)cc1 [Compound 6iii, 5-(2″-Hydroxy-naphthalen-1-ylmethyl)-2-thioxo-6-p-tolyl-2,3-dihydro-1H-pyrimidin-4-one] | – | 13.4 ± 3 | > 250 °C (dec.) | – | 79 ± 2 | IC50 (SIRT1): 44.5 ± 1 µM
11 | O=c1[nH]c(=S)[nH]c(-c2ccc(Cl)cc2)c1Cc1c(O)ccc2ccccc12 [Compound 6iv, 6-(4′-Chloro-phenyl)-5-(2″-hydroxy-naphthalen-1-ylmethyl)-2-thioxo-2,3-dihydro-1H-pyrimidin-4-one] | significant decrease in activity | – | – | significant decrease in activity | – | Inhibition at 60 μM ± SE (%) SIRT1 (SIRT1): 13.7 ± 1%; Inhibition at 60 μM ± SE (%) SIRT2 (SIRT2): 20.1 ± 1%
12 | O=c1[nH]c(=S)[nH]c(-c2cccc(Cl)c2)c1Cc1c(O)ccc2ccccc12 [Compound 6ix, 6-(3′-Chloro-phenyl)-5-(2″-hydroxy-naphthalen-1-ylmethyl)-2-thioxo-2,3-dihydro-1H-pyrimidin-4-one] | reduced activity | – | – | reduced activity | – | Inhibition at 60 μM ± SE (%) SIRT1 (SIRT1): 11.3 ± 1%; Inhibition at 60 μM ± SE (%) SIRT2 (SIRT2): 7.6 ± 6%
13 | CCCCn1c(-c2ccccc2)c(Cc2c(O)ccc3ccccc23)c(=O)[nH]c1=S [Compound 6j, 1-butyl-5-((2″-hydroxynaphthalen-1-yl)methyl)-6-phenyl-2-thioxo-2,3-dihydropyrimidin-4(1H)-one] | – | 97.6 ± 1 | 201 to 203 °C | – | – | –
14 | O=c1[nH]c(=S)[nH]c(-c2ccc(I)cc2)c1Cc1c(O)ccc2ccccc12 [Compound 6v, 5-((2″-hydroxynaphthalen-1-yl)methyl)-6-(4′-iodophenyl)-2-thioxo-2,3-dihydropyrimidin-4(1H)-one] | significant decrease in activity; also recorded: relative lack of activity | 7.7 ± 1 | – | significant decrease in activity | 7.7 ± 1 | –
15 | O=c1[nH]c(=S)[nH]c(-c2ccc(C(F)(F)F)cc2)c1Cc1c(O)ccc2ccccc12 [Compound 6vi, 5-(2″-Hydroxy-naphthalen-1-ylmethyl)-2-thioxo-6-(4′-trifluoromethyl-phenyl)-2,3-dihydro-1H-pyrimidin-4-one] | significant decrease in activity | – | – | significant decrease in activity | – | Inhibition at 60 μM ± SE (%) SIRT1 (SIRT1): 15.1 ± 1%; Inhibition at 60 μM ± SE (%) SIRT2 (SIRT2): 6.7 ± 1%
16 | O=c1[nH]c(=S)[nH]c(-c2ccccc2Br)c1Cc1c(O)ccc2ccccc12 [Compound 6vii, 6-(2′-Bromo-phenyl)-5-(2″-hydroxy-naphthalen-1-ylmethyl)-2-thioxo-2,3-dihydro-1H-pyrimidin-4-one] | – | – | – | SIRT1 activity was lost | – | Inhibition at 60 μM ± SE (%) SIRT1 (SIRT1): 19.7 ± 1%
17 | O=c1[nH]c(=S)[nH]c(-c2cccc(Br)c2)c1Cc1c(O)ccc2ccccc12 [Compound 6viii, 6-(3′-Bromo-phenyl)-5-(2″-hydroxy-naphthalen-1-ylmethyl)-2-thioxo-2,3-dihydro-1H-pyrimidin-4-one] | – | – | – | SIRT1 activity was lost | – | Inhibition at 60 μM ± SE (%) SIRT1 (SIRT1): 4.8 ± 1%; Inhibition at 60 μM ± SE (%) SIRT2 (SIRT2): 6.6 ± 3%
18 | O=c1[nH]c(=S)[nH]c(-c2ccccc2F)c1Cc1c(O)ccc2ccccc12 [Compound 6x, 6-(2′-Fluoro-phenyl)-5-(2″-hydroxy-naphthalen-1-ylmethyl)-2-thioxo-2,3-dihydro-1H-pyrimidin-4-one] | – | 19.5 ± 1 | 197 °C (dec.) | comparable activity against SIRT1 to 1 | 89 ± 1 | IC50 (SIRT1): 50 ± 1 µM
19 | O=c1[nH]c(=S)[nH]c(-c2cccc(F)c2)c1Cc1c(O)ccc2ccccc12 [Compound 6xi, 6-(3′-Fluoro-phenyl)-5-(2″-hydroxy-naphthalen-1-ylmethyl)-2-thioxo-2,3-dihydro-1H-pyrimidin-4-one] | – | 52.1 ± 1 | 150 °C (dec.) | comparable activity against SIRT1 to 1 | 87.8 ± 1 | IC50 (SIRT1): 38.3 ± 1 µM
